Measured values from US11318137B2, “Quinazoline compounds as modulators of Ras signaling” (VANDERBILT UNIVERSITY, priority 2017, dated 2022).
pEC50: −log10 of the molar value.

Molecular target: T1, SOS-mediated nucleotide exchange on Ras (Homo sapiens, UniProt Q07889)
T1 sequence (Q07889 1-1333): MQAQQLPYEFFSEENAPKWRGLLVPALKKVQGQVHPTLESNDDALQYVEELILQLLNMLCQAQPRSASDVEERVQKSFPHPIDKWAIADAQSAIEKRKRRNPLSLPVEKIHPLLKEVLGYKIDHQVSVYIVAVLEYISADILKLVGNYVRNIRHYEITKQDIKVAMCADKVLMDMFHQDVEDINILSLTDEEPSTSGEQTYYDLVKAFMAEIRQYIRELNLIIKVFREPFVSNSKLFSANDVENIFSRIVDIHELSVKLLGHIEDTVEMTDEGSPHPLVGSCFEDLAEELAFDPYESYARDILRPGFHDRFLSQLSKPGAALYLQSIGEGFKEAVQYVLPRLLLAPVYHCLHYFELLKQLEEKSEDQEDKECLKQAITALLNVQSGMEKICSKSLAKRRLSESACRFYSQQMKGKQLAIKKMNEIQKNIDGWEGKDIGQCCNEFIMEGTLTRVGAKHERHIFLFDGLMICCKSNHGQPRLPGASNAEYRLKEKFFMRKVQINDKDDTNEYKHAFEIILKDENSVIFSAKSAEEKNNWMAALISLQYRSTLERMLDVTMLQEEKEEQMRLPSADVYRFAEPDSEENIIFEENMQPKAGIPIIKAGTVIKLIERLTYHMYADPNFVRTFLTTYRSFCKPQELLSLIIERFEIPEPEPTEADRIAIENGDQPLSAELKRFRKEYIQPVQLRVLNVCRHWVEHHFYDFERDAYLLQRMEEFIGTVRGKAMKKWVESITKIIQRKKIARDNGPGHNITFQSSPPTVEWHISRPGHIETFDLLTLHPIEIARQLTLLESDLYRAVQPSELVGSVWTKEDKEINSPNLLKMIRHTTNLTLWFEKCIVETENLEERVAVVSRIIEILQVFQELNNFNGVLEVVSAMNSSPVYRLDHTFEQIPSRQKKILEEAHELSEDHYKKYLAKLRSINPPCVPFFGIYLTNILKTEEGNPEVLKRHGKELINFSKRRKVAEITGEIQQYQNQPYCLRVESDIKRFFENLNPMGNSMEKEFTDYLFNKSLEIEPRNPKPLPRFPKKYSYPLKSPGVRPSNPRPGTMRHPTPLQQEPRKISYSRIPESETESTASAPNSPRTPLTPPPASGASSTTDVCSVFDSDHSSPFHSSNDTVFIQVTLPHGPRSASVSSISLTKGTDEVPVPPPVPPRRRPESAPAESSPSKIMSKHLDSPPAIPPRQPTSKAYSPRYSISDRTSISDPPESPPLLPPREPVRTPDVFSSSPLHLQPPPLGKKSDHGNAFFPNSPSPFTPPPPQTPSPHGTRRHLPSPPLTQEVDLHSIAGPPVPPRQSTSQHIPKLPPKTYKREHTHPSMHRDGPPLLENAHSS
Assay: SOS-mediated nucleotide exchange on Ras (BODIPY-GDP fluorescence)
Format: biochemical
Conditions: Ras loaded with BODIPY-GDP, GTP and SOS added; EC50 from derived exchange rates
Procedure: A. SOS-Mediated Nucleotide Exchange on Ras
Compounds of the present invention were tested for their ability to modify the rate at which Ras exchanges a labeled nucleotide guanosine diphosphate (GDP) analog for guanosine triphosphate (GTP). Briefly, test compounds, then GTP and the Ras GEF SOS (Son of Sevenless) are added to a buffered solution containing Ras protein loaded with BODIPY-GDP. Changes in fluorescence indicating exchange of the labeled GDP for GTP are monitored over time. Raw fluorescence data was fit to a single exponential decay function and derived rates were plotted as mean values. EC50 values were calculated by plotting mean derived rates as a function of compound concentration and fit using a four-parameter dose-response curve. Full assay details are disclosed in: Burns, M. C.; Sun, Q.; Daniels, R. N.; Camper, D. V.; Kennedy, J. P.; Phan, J.; Olejniczak, E. O.; Lee, T.; Waterson, A. G.; Rossanese, O. W.; Fesik, S. W. “Approach for targeting Ras with small molecules that activate SOS-mediated nucleotide exchange” Proc. Natl. Acad. Sci. 2014; 11(9): 3401-3406. PMCID: PMC3948241.

Row | SMILES | pEC50
1 | C[C@@H](Nc1nc(Nc2cc(F)c(F)c(F)c2)nc2ccccc12)C1CC1 [Example 6, (R)—N^4-(1-cyclopropylethyl)-N^2-(3,4,5-trifluorophenyl)quinazoline-2,4-diamine] | 4.52 to 5.30
2 | FC(F)(F)Oc1cccc(Nc2nc(NCc3cccs3)c3ccccc3n2)c1 [Example 7, N^4-(thiophen-2-ylmethyl)-N^2-(3-(trifluoromethoxy)phenyl)quinazoline-2,4-diamine] | 4.52 to 5.30
3 | FC(F)(F)c1cccc(Nc2nc(NCc3ccco3)c3ccccc3n2)c1 [Example 8, N^44-(furan-2-ylmethyl)-N^2-(3-(trifluoromethyl)phenyl)quinazoline-2,4-diamine] | 4.52 to 5.30
4 | c1coc(CNc2nc(Nc3ccc4c(c3)CCC4)nc3ccccc23)c1 [Example 10, N^2-(2,3-dihydro-1H-inden-5-yl)-N^4-(furan-2-ylmethyl)quinazoline-2,4-diamine] | 4.52 to 5.30
5 | c1coc(CNc2nc(Nc3ccc4[nH]nnc4c3)nc3ccccc23)c1 [Example 11, N^2-(1H-benzo [d][1,2,3]triazol-5-yl)-N^4-(furan-2-ylmethyl)quinazoline-2,4-diamine] | < 4.52
6 | COc1cccc(CNc2nc(NCc3ccco3)c3ccccc3n2)c1 [Example 12, N^4-(furan-2-ylmethyl)-N^2-(3-methoxybenzyl)quinazoline-2,4-diamine] | 4.52 to 5.30
7 | Oc1cccc(Nc2nc(NCc3cccs3)c3ccccc3n2)c1 [Example 13, 3-((4-((thiophen-2-ylmethyl)amino)quinazolin-2-yl)amino)phenol] | 4.52 to 5.30
8 | Cc1ccc(CNc2nc(Nc3ccc(F)c(Cl)c3)nc3ccccc23)o1 [Example 15, N^2-(3-chloro-4-fluorophenyl)-N^4-((5-methylfuran-2-yl)methyl)quinazoline-2,4-diamine] | 4.52 to 5.30
9 | CCC(C)CNc1nc(Nc2ccc(F)c(Cl)c2)nc2ccccc12 (stereo not shown) [Example 16, N^2-(3-chloro-4-fluorophenyl)-N^4-(2-methylbutyl)quinazoline-2,4-diamine] | 4.52 to 5.30
10 | c1ccc2c(NCC3CC3)nc(NCC3CCC3)nc2c1 [Example 17, N^2-(cyclobutylmethyl)-N^4-(cyclopropylmethyl)quinazoline-2,4-diamine] | 4.52 to 5.30
11 | c1ccc2c(NCC3CC3)nc(NCC3CCCO3)nc2c1 (stereo not shown) [Example 18, N^4-(cyclopropylmethyl)-N^2-((THF-2-yl)methyl)quinazoline-2,4-diamine] | < 4.52
12 | CC(C)[C@@H](C)Nc1nc(Nc2cc(F)cc(F)c2)nc2ccccc12 [Example 20, (R)—N^2-(3,5-difluorophenyl)-N^4-(3-methylbutan-2-yl)quinazoline-2,4-diamine] | 4.52 to 5.30
13 | C[C@@H](Nc1nc(NCc2cccc(Cl)c2F)nc2ccccc12)C1CC1 [Example 25, (R)—N^2-(3-chloro-2-fluorobenzyl)-N^4-(1-cyclopropylethyl)quinazoline-2,4-diamine] | 5.30 to 6.00
14 | Cc1cccc(CNc2nc(N[C@H](C)C3CC3)c3ccccc3n2)c1F [Example 26, (R)—N^4-(1-cyclopropylethyl)-N^2-(2-fluoro-3-methylbenzyl)quinazoline-2,4-diamine] | 5.30 to 6.00

Next, values leading:

Row | pEC50 | SMILES
15 | 4.52 to 5.30 | C[C@@H](Nc1nc(NCc2cccc(C(F)(F)F)c2)nc2ccccc12)C1CC1 [Example 28, (R)—N^4-(1-cyclopropylethyl)-N^2-(3-(trifluoromethyl)benzyl)quinazoline-2,4-diamine]
16 | 4.52 to 5.30 | C[C@@H](Nc1nc(NCc2ccccc2F)nc2ccccc12)C1CC1 [Example 29, (R)—N^4-(1-cyclopropylethyl)-N^2-(2-fluorobenzyl)quinazoline-2,4-diamine]
17 | 4.52 to 5.30 | C[C@@H](Nc1nc(Nc2ccc(F)c(Cl)c2F)nc2ccccc12)C1CC1 [Example 30]
18 | 5.30 to 6.00 | CCC(CC)CNc1nc(Nc2ccc(F)c(Cl)c2)nc2ccccc12 [Example 31, N^2-(3-chloro-4-fluorophenyl)-N^4-(2-ethylbutyl)quinazoline-2,4-diamine]
19 | 4.52 to 5.30 | c1ccc(CNc2nc(Nc3ccccc3)nc3ccccc23)cc1 [Example 33, N^4-benzyl-N^2-phenylquinazoline-2,4-diamine]
20 | 5.30 to 6.00 | C[C@@H](Nc1nc(Nc2cc(F)cc(F)c2)nc2ccccc12)C(C)(C)C [Example 41, (R)—N^2-(3,5-difluorophenyl)-N^4-(3,3-dimethylbutan-2-yl)quinazoline-2,4-diamine]
21 | 5.30 to 6.00 | C[C@@H](Nc1nc(Nc2ccc(F)c(Cl)c2)nc2ccccc12)C1CCCC1 [Example 43, (R)—N^2-(3-chloro-4-fluorophenyl)-N^4-(1-cyclopentylethyl)quinazoline-2,4-diamine]
22 | < 4.52 | CC[C@@H](Nc1nc(Nc2ccc(F)c(Cl)c2)nc2ccccc12)C1CCCC1 [Example 44, (R)—N^2-(3-chloro-4-fluorophenyl)-N^4-(1-cyclopentylpropyl)quinazoline-2,4-diamine]
23 | < 4.52 | Fc1ccc(Nc2nc(N[C@@H](C3CC3)C(F)(F)F)c3ccccc3n2)cc1Cl [Example 45, (S)—N^2-(3-chloro-4-fluorophenyl)-N^4-(1-cyclopropyl-2,2,2-trifluoroethyl)quinazoline-2,4-diamine]
24 | < 4.52 | C[C@@H](Nc1nc(Nc2ccc(F)c(Cl)c2)nc2c(Br)cccc12)C1CC1 [Example 46, (R)-8-bromo-N^2-(3-chloro-4-fluorophenyl)-N-(1-cyclopropylethyl)quinazoline-2,4-diamine]
25 | 5.30 to 6.00 | C[C@@H](Nc1nc(Nc2ccc(F)c(Cl)c2)nc2c(C3CNC3)cccc12)C1CC1 [Example 61, (R)-8-(azetidin-3-yl)-N^2-(3-chloro-4-fluorophenyl)-N^4-(1-cyclopropylethyl)quinazoline-2,4-diamine]
26 | 4.52 to 5.30 | C[C@@H](Nc1nc(Nc2ccc(F)c(Cl)c2)nc2c(C3=CCNCC3)cccc12)C(C)(C)C [Example 79, (R)—N^2-(3-chloro-4-fluorophenyl)-N^4-(3,3-dimethylbutan-2-yl)-8-(1,2,3,6-tetrahydropyridin-4-yl)quinazoline-2,4-diamine]
27 | 5.30 to 6.00 | Cc1cc(F)cc(Nc2nc(N[C@H](C)C(C)(C)C)c3cccc(C4=CCNCC4)c3n2)c1 [Example 80, (R)—N^4-(3,3-dimethylbutan-2-yl)-N^2-(3-fluoro-5-methylphenyl)-8-(1,2,3,6-tetrahydropyridin-4-yl)quinazoline-2,4-diamine]
28 | 5.30 to 6.00 | Cc1cc(F)cc(Nc2nc(N[C@H](C)C(C)(C)C)c3cccc(CCN)c3n2)c1 [Example 83, (R)-8-(2-aminoethyl)-N^4-(3,3-dimethylbutan-2-yl)-N^2-(3-fluoro-5-methylphenyl)quinazoline-2,4-diamine]
29 | 5.30 to 6.00 | C[C@@H](Nc1nc(Nc2ccc(F)c(Cl)c2)nc2c(C3=CCNCC3)cccc12)c1cccs1 [Example 88, (R)—N^2-(3-chloro-4-fluorophenyl)-8-(1,2,3,6-tetrahydropyridin-4-yl)-N^4-(1-(thiophen-2-yl)ethyl)quinazoline-2,4-diamine]
30 | 5.30 to 6.00 | C[C@@H](Nc1nc(NCC2CCCCC2)nc2c(CN)cccc12)c1cccs1 [Example 96, (R)-8-(aminomethyl)-N^2-(cyclohexylmethyl)-N^4-(1-(thiophen-2-yl)ethyl)quinazoline-2,4-diamine]
31 | 5.30 to 6.00 | CCC(CC)CNc1nc(Nc2ccc(F)c(Cl)c2)nc2c(C#N)cccc12 [Example 99, 2-((3-chloro-4-fluorophenyl)amino)-4-((2-ethylbutyl)amino)quinazoline-8-carbonitrile]
